Results: US9023616B2, “Oil producing microbes and method of modification thereof” (DSM Nutritional Products AG, priority 2006, dated 2015)
“Also recorded” adds a separate entry of the source.

Test system: ONC-T18
Assay: Fatty acid production antagonist supplementation of ONC-T18 culture, fatty acid profile by FAME GC-FID
Assay type: cell-based, Thraustochytrium sp. ONC-T18
Details: for adrenic acid, lipid as percentage of total fatty acid / arachidic acid, lipid as percentage of total fatty acid / arachidonic acid, lipid as percentage of total fatty acid / behenic acid, lipid as percentage of total fatty acid / docosadienoic acid, lipid as percentage of total fatty acid / docosahexaenoic acid, lipid as percentage of total fatty acid / docosapentaenoic acid n-3, lipid as percentage of total fatty acid / docosapentaenoic acid n-6, lipid as percentage of total fatty acid / eicosadienoic acid, lipid as percentage of total fatty acid / eicosapentaenoic acid, lipid as percentage of total fatty acid / eicosatetraenoic acid, lipid as percentage of total fatty acid / eicosatrienoic acid, lipid as percentage of total fatty acid / eicosenoic acid, lipid as percentage of total fatty acid / heneicosapentaenoic acid, lipid as percentage of total fatty acid / hexacosanoic acid, lipid as percentage of total fatty acid / homo-gamma-linolenic acid, lipid as percentage of total fatty acid / lignoceric acid, lipid as percentage of total fatty acid / margaric acid, lipid as percentage of total fatty acid / myristic acid, lipid as percentage of total fatty acid / myristoleic acid, lipid as percentage of total fatty acid / nervonic acid, lipid as percentage of total fatty acid / oleic acid, lipid as percentage of total fatty acid / palmitic acid, lipid as percentage of total fatty acid / palmitoleic acid, lipid as percentage of total fatty acid / pentadecanoic acid, lipid as percentage of total fatty acid / pentadecenoic acid, lipid as percentage of total fatty acid / stearic acid, lipid as percentage of total fatty acid / vaccenic acid, lipid as percentage of total fatty acid: presence of the antagonist, oleic acid without glucose
Procedure: Media containing 25 g/l sea salt and 1 g/l yeast extract was autoclaved at 120° C. for 20 minutes. Sterilized glucose was added to the media at a concentration of 9 g/l. Sethoxydim (Supleco) was dissolved in dimethyl sulfoxide at a concentration of 5 mg/ml was then added to the media at to represent a final concentration of 100 µM. 1 ml of a 24 hour pre-culture of ONC-T 18 that had been cultured in the same media was added. Culturing was carried out in a shaker (130 rpm) for four days at room temperature. After the incubation period, cells were harvested by centrifugation at 4300 rpm for 10 minutes. The cell pellets were then freeze-dried, weighed and the oil was extracted from the cells.
(§1) The lipids were extracted and derivatized to fatty acid methyl esters (FAME) for gas chromatography analysis (GC). Transesterification and extraction was done using 200 mg freeze dried cells, with C19:0 as internal standard, added transesterification reaction mix (methanol:hydrochloric acid:chloroform, 10:1:1) mixed and heated at 90° C. for 2 hours, then allowed to cool at room temperature. FAMEs were extracted by adding 1 ml water, and 2 ml hexane:chloroform (4:1), and allow organic and aqueous phases to separate. The organic layer was extracted and treated with 0.5 g of anhydrous sodium sulfate to remove particulates and residual water. The organic solvents were evaporated under a stream of argon. The FAMEs were re-suspended in 5 ml of iso-octane and analyzed by GC-FID. The percent conversion was calculated by dividing the product produced by the sum of (the product produced plus the substrate added) and then multiplying by 100.
Media containing 6 g/l sea salt, 2 g/l yeast extract, and 8 g/l L-glutamic acid monosodium salt hydrate was autoclaved at 120° C. for 20 minutes. Sterilized D+-glucose was then added to this media at a concentration of 40 g/l. Cerulenin dissolved in ethanol at a concentration of 5 mg/ml was added to 250 ml flask and the solvent was evaporated for 1 hour prior to adding the media to the flask. The amount of cerulenin in the flask represented a final concentration of 20 mg/l. ONC-T18 was then added to the medium from a plate culture and culturing occurred in a shaker (130 rpm) at room temperature for four days. After the incubation period, cells were harvested by centrifugation at 4300 rpm for 10 minutes, washed once with distilled water, and then centrifuged again at 4300 rpm for 10 minutes. The cell pellets were then freeze-dried, weighed and the oil was extracted from the cells.
as §1, with “produced+the” for “produced plus the”
Media containing 6 g/l sea salt, 2 g/l yeast extract, and 8 g/l L-glutamic acid monosodium salt hydrate was autoclaved at 120° C. for 20 minutes. Sterilized D+-glucose wad then added at a concentration of 5 g/l or was not added to the media. Oleic acid was added to the media to represent a final concentration of 2 ml/l. […]

SMILES | C16:0 content in ONC-T18, change versus control (in words) (antagonist added to medium) | adrenic acid, lipid as percentage of total fatty acid | arachidic acid, lipid as percentage of total fatty acid | arachidonic acid, lipid as percentage of total fatty acid | behenic acid, lipid as percentage of total fatty acid | docosadienoic acid, lipid as percentage of total fatty acid | docosahexaenoic acid, lipid as percentage of total fatty acid | docosapentaenoic acid n-3, lipid as percentage of total fatty acid | docosapentaenoic acid n-6, lipid as percentage of total fatty acid | eicosadienoic acid, lipid as percentage of total fatty acid | eicosapentaenoic acid, lipid as percentage of total fatty acid | eicosatetraenoic acid, lipid as percentage of total fatty acid | eicosatrienoic acid, lipid as percentage of total fatty acid | eicosenoic acid, lipid as percentage of total fatty acid | heneicosapentaenoic acid, lipid as percentage of total fatty acid | hexacosanoic acid, lipid as percentage of total fatty acid | homo-gamma-linolenic acid, lipid as percentage of total fatty acid | lignoceric acid, lipid as percentage of total fatty acid | margaric acid, lipid as percentage of total fatty acid | myristic acid, lipid as percentage of total fatty acid | also measured
COc1cc(CNC(=O)CCCC/C=C/C(C)C)ccc1O [capsaicin] | decrease in the content of C16:0 | 0.46% | 0.20% | 0.78% | 0.00% | 0.17% | 16.86% | 0.31% | 5.19% | 0.23% | 1.38% | 0.27% | 0.00% | 0.00% | 0.00% | 0.00% | 0.22% | 0.00% | 0.19% | 21.86% | C16:1 content in ONC-T18, change versus control (in words) (antagonist added to medium): increase the content of C16:1; myristoleic acid, lipid as percentage of total fatty acid: 0.28%; nervonic acid, lipid as percentage of total fatty acid: 0.00%; oleic acid, lipid as percentage of total fatty acid: 0.00%; palmitic acid, lipid as percentage of total fatty acid: 24.19%; palmitoleic acid, lipid as percentage of total fatty acid: 17.98%; pentadecanoic acid, lipid as percentage of total fatty acid: 0.91%; pentadecenoic acid, lipid as percentage of total fatty acid: 0.23%; stearic acid, lipid as percentage of total fatty acid: 1.60%; vaccenic acid, lipid as percentage of total fatty acid: 6.67%
C/C=C/C/C=C/CCC(=O)[C@H]1O[C@H]1C(N)=O [cerulenin] | increases | 0.00% | 0.41% | 0.30% | 0.11% | 0.14% | 19.97% | 0.23% | 5.83% | 0.17% | 1.17% | 0.36% | 0.00% | 0.19% | 1.24% | 0.23% | 0.20% | 0.00% | 0.74% | 11.03% | DHA accumulated in ONC-T18, change versus control (in words) (antagonist added to medium): increases; also recorded: increase in the content and proportion of DHA; myristoleic acid, lipid as percentage of total fatty acid: 0.00%; nervonic acid, lipid as percentage of total fatty acid: 0.00%; oleic acid, lipid as percentage of total fatty acid: 0.29%; palmitic acid, lipid as percentage of total fatty acid: 48.98%; palmitoleic acid, lipid as percentage of total fatty acid: 2.22%; pentadecanoic acid, lipid as percentage of total fatty acid: 3.23%; pentadecenoic acid, lipid as percentage of total fatty acid: 0.10%; stearic acid, lipid as percentage of total fatty acid: 1.86%; vaccenic acid, lipid as percentage of total fatty acid: 1.24%
